Five compounds from patent US10086085B2, “Bifunctional cytotoxic agents” (priority 2014, dated 2018) can be followed below.

Assay [1] relates to N87 (human gastric carcinoma derived from metastatic liver site). Put plainly: Cytotoxicity assay for payloads (MTS), N87 cells. The following applies: Homo sapiens, 96 h; N87 cells, incubated with compounds for four days, MTS absorbance 490 nm; read-out: N87 IC50. The assay is classed as cell-based. In a few lines: (§1)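 Cells in RPMI 1640 with 10% FBS exposed to compounds for four days at 10 concentrations in duplicate. Viability read by MTS absorbance at 490 nm after 1.5 h, as % of untreated controls; IC50 from four-parameter logistic fit.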

The next assay deals with HL60 (leukemia). Put plainly: Cytotoxicity assay for payloads (MTS), HL-60 cells. The assay is classed as cell-based. The note with it: Homo sapiens, 96 h, incubated with compounds for four days, MTS absorbance 490 nm. A digest of the protocol: as §1

Broadly, the IC50 is the concentration at which inhibition is half-maximal. With `CC(=O)Oc1cc2c(c3ccccc13)[C@H](CCl)CN2C(=O)c1ccc(C(=O)N2C[C@@H](CCl)c3c2cc(OC(C)=O)c2ccccc32)cc1` [Compound 176, benzene-1,4-diylbis[carbonyl(1S)-1-(chloromethyl)-1,2-dihydro-3H-benzo[e]indole-3,5-diyl] diacetate], the results for the IC50 (in assay [1]; with HL60 (leukemia)) were 26.4 nM and 0.199 nM, respectively.

Turning to `CC(=O)Oc1cc2c(c3ccccc13)[C@H](CCl)CN2C(=O)Cc1cccc(CC(=O)N2C[C@@H](CCl)c3c2cc(OC(C)=O)c2ccccc32)c1` [Compound 177, benzene-1,3-diylbis[(1-oxoethane-2,1-diyl)(1S)-1-(chloromethyl)-1,2-dihydro-3H-benzo[e]indole-3,5-diyl] diacetate], the IC50 came out at 2.12 nM in assay [1] and 0.196 nM in the assay on HL60 (leukemia).

Consider `CC(=O)Oc1cc2c(c3ccccc13)[C@H](CCl)CN2C(=O)Cc1cc(CC(=O)N2C[C@@H](CCl)c3c2cc(OC(C)=O)c2ccccc32)cc([N+](=O)[O-])c1` [Compound 178, (5-nitrobenzene-1,3-diyl)bis[(1-oxoethane-2,1-diyl)(1S)-1-(chloromethyl)-1,2-dihydro-3H-benzo[e]indole-3,5-diyl] diacetate], for which the results for the IC50 (in assay [1]; in the assay on HL60 (leukemia)) were 0.484 nM and 0.036 nM, respectively.

In the case of `O=C(O)[C@H]1O[C@@H](Oc2cc3c(c4ccccc24)[C@H](CCl)CN3C(=O)CC23CC(C(=O)N4C[C@@H](CCl)c5c4cc(O)c4ccccc54)(C2)C3)[C@H](O)[C@@H](O)[C@@H]1O` [Compound 179, (1S)-1-(chloromethyl)-3-[(3-{[(1S)-1-(chloromethyl)-5-hydroxy-1,2-dihydro-3H-benzo[e]indol-3-yl]carbonyl}bicyclo[1.1.1]pent-1-yl)acetyl]-2,3-dihydro-1H-benzo[e]indol-5-yl beta-D-glucopyranosiduronic acid], the IC50 in assay [1] was 173 nM; with HL60 (leukemia), 14.3 nM.

Take `Cc1c[nH]c2c(O)cc3c(c12)[C@H](CCl)CN3C(=O)C12CC(C(=O)N3C[C@@H](CCl)c4c3cc(N)c3ccccc43)(C1)C2` [Compound 180, [(1S)-5-amino-1-(chloromethyl)-1,2-dihydro-3H-benzo[e]indol-3-yl](3-{[(1S)-1-(chloromethyl)-5-hydroxy-8-methyl-1,6-dihydropyrrolo[3,2-e]indol-3(2H)-yl]carbonyl}bicyclo[1.1.1]pent-1-yl)methanone]: the half-inhibitory concentration (IC50) was 0.425 nM in assay [1] and 0.048 nM in the assay on HL60 (leukemia).
